Where a name gives a salt, the structure may show the parent alone.
tested on: Acinetobacter baumannii ATCC17961; assay: Antimicrobial susceptibility testing: 90% growth inhibitory concentration (IC90) determination, Iso-Sensitest broth; assay type: cell-based; settings: Acinetobacter baumannii, ATCC17961, 90% growth inhibitory concentration, Acinetobacter baumannii ATCC17961, Iso-Sensitest broth; read-out: ATCC 17961 IC90
Procedure, shortened: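 Growth at OD600 was monitored every 20 min for 16 h at 35±2 °C, with bacteria inoculated at ~5×10^(5) CFU/ml into Iso-Sensitest medium. Compounds were tested as 10-point twofold dilutions (e.g. 10–0.02 μM final). The 90% inhibitory concentration comes from the log-phase growth.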

SMILES	IC90 [nM]
Cn1c(-c2ccc(OC(F)F)c(F)c2F)cnc1C(=O)Nc1ccc(C(=O)N2CCN(C(=O)[C@@H]3C[C@@H](O)CN3)CC2)c(Cl)c1 [Example 163, N-[3-chloro-4-[4-[(2S,4R)-4-hydroxypyrrolidine-2-carbonyl]piperazine-1-carbonyl]phenyl]-5-[4-(difluoromethoxy)-2,3-difluoro-phenyl]-1-methyl-imidazole-2-carboxamide formate]	40
Cn1c(-c2ccc(OCF)c(F)c2F)cnc1C(=O)Nc1ccc(C(=O)N2CCN(C(=O)CC3(O)CCNCC3)CC2)c(Cl)c1 [Example 164, N-[3-chloro-4-[4-[2-(4-hydroxy-4-piperidyl)acetyl]piperazine-1-carbonyl]phenyl]-5-[2,3-difluoro-4-(fluoromethoxy)phenyl]-1-methyl-imidazole-2-carboxamide formate]	70
COc1ccc(-c2cnc(C(=O)Nc3ccc(C(=O)N4CCN(C(=O)C5CNC5)CC4)c(Cl)c3)n2C)c(F)c1F [Example 165, N-[4-[4-(azetidine-3-carbonyl)piperazine-1-carbonyl]-3-chloro-phenyl]-5-(2,3-difluoro-4-methoxy-phenyl)-1-methyl-imidazole-2-carboxamide formate]	50
COc1ccc(-c2cnc(C(=O)Nc3ccc(C(=O)N4CCN(C(=O)C5(O)CCNCC5)CC4)c(Cl)c3)n2C)c(F)c1F [Example 166, N-[3-chloro-4-[4-(4-hydroxypiperidine-4-carbonyl)piperazine-1-carbonyl]phenyl]-5-(2,3-difluoro-4-methoxy-phenyl)-1-methyl-imidazole-2-carboxamide formate]	50
COc1ccc(-c2cnc(C(=O)Nc3ccc(C(=O)N4CCN(C(=O)C[C@@H]5CCNC5)CC4)c(Cl)c3)n2C)c(Cl)c1F [Example 167, 5-(2-chloro-3-fluoro-4-methoxy-phenyl)-N-[3-chloro-4-[4-[2-[(3S)-pyrrolidin-3-yl]acetyl]piperazine-1-carbonyl]phenyl]-1-methyl-imidazole-2-carboxamide formate]	50
COc1c(F)cc(-c2cnc(C(=O)Nc3ccc(C(=O)N4CCN(C(=O)C5CCNCC5)CC4)c(Cl)c3)n2C)c(F)c1F [Example 168, N-[3-chloro-4-[4-(piperidine-4-carbonyl)piperazine-1-carbonyl]phenyl]-1-methyl-5-(2,3,5-trifluoro-4-methoxy-phenyl)imidazole-2-carboxamide formate]	150
Cn1c(-c2ccc(OC(F)F)c(F)c2Cl)cnc1C(=O)Nc1ccc(C(=O)N2CCN(C(=O)C3(O)CCNCC3)CC2)c(Cl)c1 [Example 169, 5-[2-chloro-4-(difluoromethoxy)-3-fluoro-phenyl]-N-[3-chloro-4-[4-(4-hydroxypiperidine-4-carbonyl)piperazine-1-carbonyl]phenyl]-1-methyl-imidazole-2-carboxamide formate]	30
CCOc1ccc(-c2cnc(C(=O)Nc3ccc(C(=O)N4CCN(C(=O)C5(O)CCNCC5)CC4)c(Cl)c3)n2C)c(F)c1F [Example 170, N-[3-chloro-4-[4-(4-hydroxypiperidine-4-carbonyl)piperazine-1-carbonyl]phenyl]-5-(4-ethoxy-2,3-difluoro-phenyl)-1-methyl-imidazole-2-carboxamide formate]	60
Cn1c(-c2ccc(OC(F)F)c(F)c2Cl)cnc1C(=O)Nc1ccc(C(=O)N2CCN(C(=O)CC3(O)CCNCC3)CC2)c(Cl)c1 [Example 172, 5-[2-chloro-4-(difluoromethoxy)-3-fluoro-phenyl]-N-[3-chloro-4-[4-[2-(4-hydroxy-4-piperidyl)acetyl]piperazine-1-carbonyl]phenyl]-1-methyl-imidazole-2-carboxamide formate]	50
Cn1c(-c2ccc(OCF)c(F)c2Cl)cnc1C(=O)Nc1ccc(C(=O)N2CCN(C(=O)CC3(O)CCNCC3)CC2)c(Cl)c1 [Example 173, 5-[2-chloro-3-fluoro-4-(fluoromethoxy)phenyl]-N-[3-chloro-4-[4-[2-(4-hydroxy-4-piperidyl)acetyl]piperazine-1-carbonyl]phenyl]-1-methyl-imidazole-2-carboxamide formate]	50
Cn1c(-c2ccc(OC(F)F)c(F)c2F)cnc1C(=O)Nc1ccc(C(=O)N2CCN(C(=O)C3CCN(C(=O)C4CNC4)CC3)CC2)c(Cl)c1 [Example 174, N-[4-[4-[1-(azetidine-3-carbonyl)piperidine-4-carbonyl]piperazine-1-carbonyl]-3-chloro-phenyl]-5-[4-(difluoromethoxy)-2,3-difluoro-phenyl]-1-methyl-imidazole-2-carboxamide formate]	70
CN(C)CC(=O)N1CCN(C(=O)c2ccc(NC(=O)c3ncc(-c4ccc(OC(F)F)cc4F)n3C)cc2Cl)CC1 [Example 175, N-[3-chloro-4-[4-[2-(dimethylamino)acetyl]piperazine-1-carbonyl]phenyl]-5-[4-(difluoromethoxy)-2-fluoro-phenyl]-1-methyl-imidazole-2-carboxamide formate]	50
CN(C)CC(=O)N1CCN(C(=O)c2ccc(NC(=O)c3ncc(-c4ccc(OC(F)F)c(F)c4)n3C)cc2Cl)CC1 [Example 176, N-[3-chloro-4-[4-[2-(dimethylamino)acetyl]piperazine-1-carbonyl]phenyl]-5-[4-(difluoromethoxy)-3-fluoro-phenyl]-1-methyl-imidazole-2-carboxamide formate]	80
COc1ccc(-c2cnc(C(=O)Nc3ccc(C(=O)N4CCN(C(=O)CC5(O)CNC5)CC4)c(Cl)c3)n2C)c(F)c1F [Example 177, N-[3-chloro-4-[4-[2-(3-hydroxyazetidin-3-yl)acetyl]piperazine-1-carbonyl]phenyl]-5-(2,3-difluoro-4-methoxy-phenyl)-1-methyl-imidazole-2-carboxamide formate]	50
Cn1c(-c2ccc(OC(F)F)cc2F)cnc1C(=O)Nc1ccc(C(=O)N2CCN(C(=O)CC3CNC3)CC2)c(Cl)c1 [Example 178, N-[4-[4-[2-(azetidin-3-yl)acetyl]piperazine-1-carbonyl]-3-chloro-phenyl]-5-[4-(difluoromethoxy)-2-fluoro-phenyl]-1-methyl-imidazole-2-carboxamide formate]	70
Cn1c(-c2ccc(OC(F)F)c(F)c2F)cnc1C(=O)Nc1ccc(C(=O)N2CCN(C(=O)C3CCN(C(=O)C4(O)CCNCC4)CC3)CC2)c(Cl)c1 [Example 179, N-[3-chloro-4-[4-[1-(4-hydroxypiperidine-4-carbonyl)piperidine-4-carbonyl]piperazine-1-carbonyl]phenyl]-5-[4-(difluoromethoxy)-2,3-difluoro-phenyl]-1-methyl-imidazole-2-carboxamide formate]	50
Cn1c(-c2ccc(OC(F)F)cc2F)cnc1C(=O)Nc1ccc(C(=O)N2CCN(C(=O)C3CCNCC3)CC2)c(Cl)c1 [Example 180, N-[3-chloro-4-[4-(piperidine-4-carbonyl)piperazine-1-carbonyl]phenyl]-5-[4-(difluoromethoxy)-2-fluoro-phenyl]-1-methyl-imidazole-2-carboxamide formate]	60

same assay, conditions: Acinetobacter baumannii, ATCC17961, read-out: ATCC 17961 IC90

SMILES	IC90 [nM]
Cn1c(-c2ccc(OCF)c(F)c2F)cnc1C(=O)Nc1ccc(C(=O)N2CCN(C(=O)C3CNCC(O)C3)CC2)c(Cl)c1 (stereo not drawn) [Example 171, formate]	50

Source: patent US20220396565A1 (Hoffmann-La Roche Inc., priority 2020, published 2022)
